Results taken from patent publication US20020102678A1, “Staphylococcal gene, vgaC, conferring resistance to streptogramin A and related compounds” (priority 2000, published 2002).

What was measured:
[1] = test system: BM3249, S. aureus clinical isolate; assay: MIC by serial twofold dilutions in MHA, strain BM3249; assay type: cell-based
Method: (§1) Staphylococci were grown in Brain Heart Infusion (Difco Laboratories, Detroit, Mich.), and E. coli cells were grown in Luria broth (10 g.1^−1 of tryptone, 5 g.^−1 of yeast extract, and 10 g.1^−1 of NaCl) Solid media contained 15 g.1^−1 of agar. Bacteria were incubated at 37° C. and for liquid cultures with agitation. Susceptibility to antibiotics was tested on Mueller-Hinton agar (MHA) (Diagnostics Pasteur, Marne-la-Coquette, France).
(§2) Susceptibility to antibiotics was determined by a disk diffusion assay (12) with commercially available antibiotic disks (Diagnostics Pasteur) and disks prepared in our laboratory as described previously (18). MICs of pristinamycin IIA and pristinamycin (Rhône-Poulenc Rorer) were determined with serial twofold dilutions of antibiotics in MHA, as described previously (2, 17).

[2] = test system: BM3250, S. aureus clinical isolate; assay: MIC by serial twofold dilutions in MHA, strain BM3250; assay type: cell-based
Method: as §1, §2

[3] = test system: BM3252, S. aureus clinical isolate; assay: MIC by serial twofold dilutions in MHA, strain BM3252; assay type: cell-based
Method: as §1, §2

[4] = test system: BM3318, S. aureus clinical isolate; assay: MIC by serial twofold dilutions in MHA, strain BM3318; assay type: cell-based
Method: as §1, §2

[5] = test system: BM3327, S. aureus clinical isolate; assay: MIC by serial twofold dilutions in MHA, strain BM3327; assay type: cell-based
Method: as §1, §2

[6] = test system: BM21926, S. aureus transformant: RN4220 (pIP 1810); assay: MIC by serial twofold dilutions in MHA, transformant carrying vgaC; assay type: cell-based; details: S. aureus RN4220 (pIP1810, carries vgaC) = BM21926
Method: as §1, §2
(§3) A DNA fragment of 1827-bp including vgaC was amplified with primers C and D (FIG. 1) from the cellular DNA of BM3327. This amplicon was cleaved with BamHl and KpnI and inserted between the BamHl and KpnI sites of the shuttle vector, pRB374 (11), downstream from the vegII promoter carried by this vector. The resulting plasmid, pIP1810, was introduced by electroporation into the S. aureus recipient RN4220. It conferred resistance to pristinamycin IIA (MICs: 32 mg.1^−1 for RN4220 [pIP18101, and 2 mg.1^−1 for RN4220 [pRB374]).

[7] = test system: RN4220 [pRB374]; assay: MIC by serial twofold dilutions in MHA, transformant with the empty vector; assay type: cell-based; details: S. aureus RN4220 [pRB374], vector without vgaC
Method: as §1, §2, §3

[8] = test system: four S. aureus isolates (BM3249, BM3250, BM3252 and BM3327); assay: MICs of the four isolates used in filter mating; assay type: cell-based; details: range over BM3249, BM3250, BM3252 and BM3327
Method: as §1, §2
Each of the four S. aureus isolates (BM3249, BM3250, BM3252 and BM3327: Table 1) resistant to PIIA (MICs : 64-128 mg. 1^−1) and related antibiotics was crossed on a membrane filter with the S. aureus recipient strain, ISP1127 (26). No transcipients were obtained by selection on pristinamycin IIA (frequency<10^−10 transcipients/donor).

[9] = test system: resistant staphylococci; details: staphylococci resistant to A compounds; cited from earlier work

Q: With `CC1=C\[C@@H](O)CC(=O)Cc2nc(co2)C(=O)N2CCC=C2C(=O)O[C@H](C(C)C)[C@H](C)/C=C/C(=O)NC\C=C\1` [pristinamycin IIA] as the compound, how does the MIC [1] read?
A: 64 mg.1^−1

Q: And the MIC [2]?
A: 64 mg.1^−1

Q: And the MIC [3]?
A: 64 mg.1^−1

Q: And the MIC [4]?
A: 128 mg.1^−1

Q: And the MIC [5]?
A: 128 mg.1^−1

Q: What about the MIC [6] of the same compound?
A: 32 mg.1^−1

Q: What about the MIC ([6]; listed as SgA) of the same compound?
A: SgA (32 mg.1^−1) Km Nm Tm

Q: And the MIC [7]?
A: 2 mg.1^−1

Q: What about the MICs [8] of the same compound?
A: 64-128 mg. 1^−1

Q: And the MICs [9]?
A: 8 mg.1^1
